Data reported in patent publication US20240091366A1, “NOVEL ACID-SENSITIVE APTAMER TRIPTOLIDE CONJUGATE AND APPLICATIONS” (priority 2022, published 2024).
“And” between values parts separate entries of the source, which are not always exact repeats. Identical values can stand only once.

How the values were obtained:
[1] = Body weight during administration, colon cancer model; conditions: mouse, in vivo
Procedure: (§1) Female nude mice were reared for 6-7 weeks under standard environment, colon cancer cells HCT116 were suspended in serum-free medium, and each mouse was inoculated with 5*10^6 tumor cells. When the tumor volume reached 50-100 mm^3, the mice were randomly divided into 4 groups, and were injected with aptamer triptolide conjugate, triptolide, and aptamer by tail vein, respectively, 12 mice in each group. A PBS negative control group was set up. […] The drugs were administered once every 2 days for 8 consecutive doses, and the experiment was ended 24 hours after the last dose. At the end of the experiment, the animals were executed by breaking the cervical vertebrae, and the tumors were stripped and weighed to calculate the tumor growth inhibition rate of the drug. The t-test was used to compare the tumor weight, tumor volume, RTV and other indexes of the animals in each group.

[2] = system: tumor cells; conditions: background art; cited from earlier work
[3] = Body weight during administration, breast cancer model; conditions: mouse, in vivo
Procedure: as §1, with “Specific experimental protocol: Female” for “Female”, “breast” for “colon”, “MDA-MB-231” for “HCT116”, “6*10^6” for “5*10^6”

[4] = background art; cited from earlier work
[5] = Body weight during administration, lung cancer model; conditions: mouse, in vivo
Procedure: as §1, with “Experimental protocol: Female” for “Female”, “lung” for “colon”, “cell line A549” for “cells HCT116”, “6*10^6” for “5*10^6”

[6] = system: breast cancer cells MDA-MB-231; experiment: In vivo antitumor activity, breast cancer xenograft in nude mice; parameters: species or system mouse; Tumor weight: unit not given here; conditions: MDA-MB-231 model, once every 2 days, 8 doses
Excerpt: The following are the in vivo activity studies conducted in different tumor-bearing mice:
The materials used in the experiments were the same as those tested in 5.1 Colon cancer cell lines, differing only in the tumor strains.
A PBS negative control group was set up.

[7] = system: human normal hepatocytes LO2; experiment: MTT assay, cytotoxicity on normal cells; assay type: cell-based; conditions: 48 h, 48 h, samples 1-3
Procedure: (§2) The same materials as those in Part II above are not repeated here, in addition to the following: human normal hepatocytes LO2, human embryonic kidney cells HEK293 were purchased from the Shanghai Cell Bank of the Chinese Academy of Sciences and preserved in our laboratory.
(§3) Take the […] LO2 and HEK293 cell lines from the liquid nitrogen tank, place them in a 37° C. water bath, wait for the frozen cells to melt into cell suspension, centrifuge the cells at 1000 r/min for 3 min, discard the supernatant, add 1 ml of fresh complete medium containing 10% fetal bovine serum and 1% double antibody to mix the cells, then add 5 ml of medium, gently and repeatedly blowing the cells with a pipette gun to make them mix well. Then add 5 ml of medium, blow the cells gently and repeatedly with a pipette gun to mix them well, and finally transfer the cell suspension to a […] and label the cell name, cell number, date of resuscitation and the operator's name, and place it in a cell culture incubator for cultivation. (HEK293 cell line was cultured with DMEM medium, LO2 cell line was cultured with RPMI1640 medium)
(§4) Take LO2 and HEK293 cells with good growth status, remove the medium, add 1 ml of sterile PBS to wash, add 1.5 ml of trypsin to digest the cells, about 2 min later the cells become round and fall off, add 1.5 ml of medium to terminate the digestion, transfer it to centrifugal tube, centrifuge at 1000 r/min for 3 min, discard the supernatant, add 1 ml of fresh medium to resuspend, then add fresh medium for 1:3 distribution to other culture dishes, and label the date of transmission and the number of generations. Place in the cell culture incubator for cultivation.
(§5) Take LO2 and HEK293 cells with good growth status, by the same operation as the cell passaging experiment, after cell resuspension, cell counting with hemocyte counting plate, with 3000 cells/well, plant in 96-well plate, after 24 h of cell culture, remove the original medium, add medium containing different concentrations of drugs and continue to cultivate for 48 hours. After 24 h of cell culture, the original medium was removed and the medium containing different concentrations of drugs was added to continue the culture for 48 hours. […] The above steps were repeated three times.

[8] = system: human embryonic kidney cells HEK293; experiment: MTT assay, cytotoxicity on normal cells; assay type: cell-based; conditions: 48 h, samples 1-3
Procedure: as §2, §3, §4, §5

[9] = MTT assay, cytotoxicity on normal cells; assay type: cell-based, human; conditions: 48 h
Procedure: as §2, §3, §4, §5

## CC(C)[C@]12O[C@H]1[C@@H]1O[C@]13[C@]1(O[C@H]1C[C@H]1C4=C(CC[C@@]13C)C(=O)OC4)[C@@H]2O [TP, Triptolide]
[1]
  body weights of mice: basically maintained in the tolerable range of animal toxicity and side-effects
[2]
  concentration effectively inhibiting the proliferation of tumor cells: 2 to 10 ng/mL
[3]
  body weights of mice: basically maintained in the tolerable range of animal toxicity and side-effects
[4]
  solubility in water: insoluble in water
[5]
  body weights of mice: basically maintained in the tolerable range of animal toxicity and side-effects
[6]; 10 μM tail vein
  RTV: 27.18 ± 47
  T/C (%): 65.57%
  Tumor inhibition rate (%): 31.78%
  Tumor weight: 2.34 ± 0.39
[6]; 30 μM tail vein
  RTV: 16.44 ± 31
  T/C (%): 39.66%
  Tumor inhibition rate (%): 48.40%
  Tumor weight: 1.77 ± 0.51
[6]; 50 μM tail vein
  RTV: 12.89 ± 55
  T/C (%): 31.10%
  Tumor inhibition rate (%): 74.05%
  Tumor weight: 0.89 ± 0.08
[7]; Homo sapiens, Hepatocyte, LO2, 3.1 nM, read-out: cell proliferation inhibition rate
  inhibition at 0.0031 µM: 21.4%
[7]; Homo sapiens, Hepatocyte, LO2, 6.3 nM, read-out: cell proliferation inhibition rate
  inhibition at 0.0063 µM: 32%
[7]; Homo sapiens, Hepatocyte, LO2, 12.5 nM, read-out: cell proliferation inhibition rate
  inhibition at 0.0125 µM: 66.4%
[7]; Homo sapiens, Hepatocyte, LO2, 25.0 nM, read-out: cell proliferation inhibition rate
  inhibition at 0.025 µM: 74.1%
[7]; Homo sapiens, Hepatocyte, LO2, 50.0 nM, read-out: cell proliferation inhibition rate
  inhibition at 0.05 µM: 88.7%
[7]; Homo sapiens, Hepatocyte, LO2, 100.0 nM, read-out: cell proliferation inhibition rate
  inhibition at 0.1 µM: 96.3%
[7]; Homo sapiens, Hepatocyte, LO2, 200.0 nM, read-out: cell proliferation inhibition rate
  inhibition at 0.2 µM: 94%
[7]; LO2, 3.1 nM, 0.0031 µM
  cell proliferation inhibition rate: 23.3551 and 17.9111
[7]; LO2, 6.3 nM, 0.0063 µM
  cell proliferation inhibition rate: 40.8401 and 42.6158
[7]; LO2, 12.5 nM, 0.0125 µM
  cell proliferation inhibition rate: 59.2076 and 65.5783
[7]; LO2, 25.0 nM, 0.025 µM
  cell proliferation inhibition rate: 73.3084 and 73.3954
[7]; LO2, 50.0 nM, 0.05 µM
  cell proliferation inhibition rate: 87.4474 and 84.6990
[7]; LO2, 100.0 nM, 0.1 µM
  cell proliferation inhibition rate: 97.7552 and 82.0308
[7]; LO2, 200.0 nM, 0.2 µM
  cell proliferation inhibition rate: 99.8060 and 96.6312
[8]; HEK293, 3.1 nM, 0.0031 µM
  cell proliferation inhibition rate: 30.4489 and 32.7054
[8]; HEK293, 6.3 nM, 0.0063 µM
  cell proliferation inhibition rate: 53.1149 and 51.3265
[8]; HEK293, 12.5 nM, 0.0125 µM
  cell proliferation inhibition rate: 70.4830 and 71.1686
[8]; HEK293, 25.0 nM, 0.025 µM
  cell proliferation inhibition rate: 73.0686 and 75.7495
[8]; HEK293, 50.0 nM, 0.05 µM
  cell proliferation inhibition rate: 81.0372
[8]; HEK293, 100.0 nM, 0.1 µM
  cell proliferation inhibition rate: 94.3972 and 99.2908
[8]; HEK293, 200.0 nM, 0.2 µM
  cell proliferation inhibition rate: 95.3901 and 100.6383
[8]; Homo sapiens, HEK293, 48 h, HEK293, 3.1 nM, read-out: cell proliferation inhibition rate
  inhibition at 0.0031 µM: 35.1%
[8]; Homo sapiens, HEK293, 48 h, HEK293, 6.3 nM, read-out: cell proliferation inhibition rate
  inhibition at 0.0063 µM: 59.9%
[8]; Homo sapiens, HEK293, 48 h, HEK293, 12.5 nM, read-out: cell proliferation inhibition rate
  inhibition at 0.0125 µM: 69.3%
[8]; Homo sapiens, HEK293, 48 h, HEK293, 25.0 nM, read-out: cell proliferation inhibition rate
  inhibition at 0.025 µM: 79.5%
[8]; Homo sapiens, HEK293, 48 h, HEK293, 50.0 nM, read-out: cell proliferation inhibition rate
  inhibition at 0.05 µM: 89.5%
[8]; Homo sapiens, HEK293, 48 h, HEK293, 100.0 nM, read-out: cell proliferation inhibition rate
  inhibition at 0.1 µM: 99.9%
[8]; Homo sapiens, HEK293, 48 h, HEK293, 200.0 nM, read-out: cell proliferation inhibition rate
  inhibition at 0.2 µM: 98.3%
[9]; human, LO2 normal hepatocyte cells, normal hepatocytes LO2, MTT
  IC50 at 48 h: 9.01 ± 0.25 nM
[9]; normal human embryonic kidney cells HEK293, MTT
  IC50 at 48 h: 5.98 ± 0.21 nM
